Test system: p53^e7/e7;chk1^MO embryos
Test: Epistasis analyses in irradiated p53^e7/e7;chk1^MO embryos (live AO assay)
Format: in vivo
Details: 12.5 Gy
Protocol: To identify such molecules, we performed in vivo epistasis analyses in zebrafish by knocking down or forcing the expression of candidate pathway contributors in p53^e7/e7;chk1^MO embryos.
Morpholino oligonucleotides (MOs) synthesized by Gene Tools™ LLC, were resuspended in sterile water at a concentration of 1 mM and delivered into zebrafish embryos at the one-cell stage by microinjection. The injection apparatus consisted of a heat-pulled, filamentous RNAse free capillary tube positioned by a micromanipulator (Narishige™ M-125), through which the MO was pressure-injected using a nitrogen air supply controlled by a microinjector (Harvard Apparatus™ PLI-100). MOs were delivered into the yolk of embryos at the one cell stage, just below the cytoplasm. For each previously unpublished MO, the working concentration was determined as the highest dose compatible with normal zebrafish development in the p53^e7/e7 background (maximal subtoxic concentration). […] 100 ng of bcl-xl mRNA in vitro transcribed from full-length zebrafish bcl-xl cDNA cloned into pCS2 were injected as described above. All embryos were grown at 28.5° C. in egg water (5 mM NaCl, 0.17 mM KCl, 0.4 mM CaCl2 and 0.16 mM MgSO4). Knockdown efficiencies for the chk1, chk2, atm, atr, p63, casp8 and casp9 MOs at their maximal subtoxic concentrations are shown in FIG. 10. The sequences of the PCR primers used for RT-PCR-based monitoring of MO efficiencies are available upon request.
Live zebrafish embryos were dechorionated in pronase (2.0 mg/mL in egg water) for 3 to 5 min and rinsed five times in egg water at 18 hpf. […] At 24 hpf, embryos were incubated in […] Acridine Orange (AO; Sigma A-6014) in egg water for 30 min at 28.5° C., followed by 3 quick rinses and three 10-min washes in egg water. 5-10 AO-treated embryos were anesthetized in Tricaine ([…]; 3-amino benzoic acid ethylester from Sigma, A-5040) and mounted laterally on a glass slide in warm 0.5% agarose in egg water by streaking a thin layer of the warm agarose across the surface of the slide, and gently pulling the embryos across the agar with a transfer pipette. Lateral images of each zebrafish were acquired on a Zeiss Axioplan2 fluorescence microscope (5× lens), using OpenLab software and a Hammamatsu C4742-95 digital camera. All images were then converted to 8-bit grayscale in NIH ImageJ using the Image>Type>8-bit command. Next, we cropped the images using the Polyonal Selection tool and the Image>Crop functions to include only the trunk of the animal from the head until the beginning of the yolk tube (MO screen; FIG. 1B) or along the entire spinal cord (epistasis analyses; FIGS. 6A & 6D). The area outside of the selected region of interest was cleared using the Edit>Clear Outside command to create a distinct boundary around the area of interest (this is important as it allows the area of interest to be precisely selected after applying the threshold). Next, we split the acquired images into features of interest and background using the Image>Adjust>Threshold function in NIH ImageJ. We then set the maximum threshold of each image to 255 (the lower slide bar in the Threshold window), and adjusted the minimum threshold to the optimized threshold (see below). The threshold was applied using the Black & White display option, with the following Lut options applied; Thresholded pixels to foreground color; Remaining pixels to background color and Black foreground, white background. […] Next, we re-selected the region of interest on the thresholded image, following the bounded image carefully, and analyzed the pixels of the image using the Analyze>Analyze Particles function. The Minimum Size was set to 1px, the Maximum Size was set to the maximum value of 999999 and the Masks option was selected under the Show pull-down menu. The following extended options were also selected: Display Results; Clear Results; Summarize, Size Distribution and Record Starts. […]

Question: With “mismatch version of casp2 MO1: 5 base-pair mismatch casp2 morpholino (SEQ ID NO: 24) (antisense CGGTGAAAGCCTCTTCTACCTCTGG; all phosphorodiamidate morpholino (PMO))” as the substance, how does the “effect on IR-induced cell death (AO labeling) of p53^e7/e7;chk1^MO embryos” value (from here on “effect on IR-induced cell death”) read?
Answer: had no effect

Question: “casp2 MO2: second casp2 morpholino, gt e3/i3 (SEQ ID NO: 23) (antisense ACCATACTAAAGTACCAACCATGAG; all phosphorodiamidate morpholino (PMO))” was tested. Which “effect on IR-induced cell death” value did it give?
Answer: significantly reduced IR-induced death

Question: With “casp2 MO1: morpholino targeting the splice donor site of intron 4 of zebrafish casp2 (SEQ ID NO: 22) (CGCTGAAACCCTGTTGTACCTGTGG; all phosphorodiamidate morpholino (PMO))” as the substance, how does the “AO labeling, of the mean p53^e7/e7;chk1^MO response” value (7.5 hpIR) read?
Answer: 16%

Question: What about the “mean decrease in AO labeling compared with p53^e7/e7;chk1^MO embryos” value (three separate experiments) of the same substance?
Answer: 6 fold

Question: With “casp8 MO: morpholino against zebrafish casp8 splice donor site (SEQ ID NO: 25) (antisense ACAGGGTTTTAACTCACAGTAGATC; all phosphorodiamidate morpholino (PMO))” as the substance, how does the “effect on IR-induced cell death” value read?
Answer: did not differ

Question: With “p63 MO: morpholino against zebrafish p63, gt e3/i3 (SEQ ID NO: 28) (antisense AAAGAGTGGCATACCGTCATTGAAC; all phosphorodiamidate morpholino (PMO))” as the substance, how does the “effect on IR-induced cell death” value read?
Answer: failed to compromise IR-induced cell death

Question: Which “effect on IR-induced cell death” value does the source give for “fadd MO: morpholino against zebrafish FADD, gt e3/i3 (SEQ ID NO: 30) (antisense TAACGTTACCAACCTCGCTCTTTCG; all phosphorodiamidate morpholino (PMO))” here?
Answer: failed to affect AO staining

Question: How did the “effect on IR-induced cell death” value turn out when “puma MO: morpholino against zebrafish puma, gt e2/i2 (SEQ ID NO: 27) (antisense AACCAAGCATGACTCTTACCCTCTG; all phosphorodiamidate morpholino (PMO))” was run?
Answer: did not significantly affect AO labeling

Question: With “p73 MO: morpholino against zebrafish TAp73 atg/5'UTR (SEQ ID NO: 29) (antisense GGATGTTGGACAATCCACCGCAGGG; all phosphorodiamidate morpholino (PMO))” as the substance, how does the “effect on IR-induced cell death” value read?
Answer: failed to compromise IR-induced cell death

Question: With “atm MO: morpholino against zebrafish atm, splice acceptor i55/e56 (SEQ ID NO: 14) (GAAAACGGCACCACCTGGTAAAAAC; antisense; all phosphorodiamidate morpholino (PMO))” as the substance, how does the “reduction of the mean p53^e7/e7;chk1^MO AO response” value read?
Answer: ~60%
